BigSolDB 2.1

CSCCC(NC(C)=O)C(=O)O (racemic)
solubility (mole fraction)
Conditions	283.15 K	293.15 K	303.15 K	313.15 K	323.15 K
in 1,4-dioxane	0.0227	0.0428	0.073	0.108	0.167
in 2-butanone	0.00843	0.0131	0.0207	0.0327	0.0568
in acetone	0.0138	0.0215	0.037	0.0587	0.0959
in acetonitrile	0.00292	0.00491	0.00877	0.016	0.0326
in dichloromethane	0.00024	0.00036	0.00052	0.0007	0.00093
in ethanol	0.0453	0.0626	0.0954	0.135	0.184
in ethyl acetate	0.00265	0.00429	0.00641	0.00936	0.0153
in isobutanol	0.0229	0.0345	0.0531	0.0779	0.114
in isopropanol	0.029	0.0436	0.066	0.0984	0.14
in methanol	0.0794	0.105	0.141	0.187	0.262
in methyl acetate	0.00352	0.00525	0.0084	0.0139	0.0243
in n-butanol	0.0247	0.0393	0.0591	0.0888	0.127
in n-pentanol	0.0215	0.0309	0.0465	0.0684	0.103
in n-propanol	0.031	0.0511	0.077	0.115	0.15
in sec-butanol	0.0236	0.0375	0.0568	0.0839	0.121
in water	0.00589	0.008	0.0136	0.0231	0.0543
